The values below come from patent US5962480A, “Drug for ameliorating brain diseases” (Wakunaga Pharmaceutical Co., Ltd., priority 1995, dated 1999).

One data set has as its system hippocampus neurons. Briefly: inhibition of reduction in survival rate of neurons, hippocampus (number of surviving cells). It counts as cell-based, rat. The conditions noted are these: Rattus norvegicus, Neuron, 72 h, 3 days, control 100%, read-out: Number of surviving cells, Hippocampus. As to the method: (§1) From a rat at the 18th day of pregnancy (having an 18 -day old embryo) the uterus was aseptically removed under etherification, and the fetus was obtained. The whole brain was collected from the fetus. From the brain placed in an L-15 medium were removed under a microscope the hippocampus, striate body, septum, cerebral cortex, and cerebellum. They were respectively minced with a knife. The minced tissue was treated by the addition of trypsin (0.25%) and DNase (0.01%) for 30 minutes at 37° C. to thereby isolate cells. The thus-isolated cells were suspended in Eagle's MEM medium supplemented with 10% fetal calf serum, and inoculated at a concentration of 4×10^4 cells/cm^2 into wells of a 48-well plate which had been coated with poly-L-lysin in advance. Following incubation for 24 hours, the medium was replaced by a serum-free DMEM/F-12 medium containing the drug. After three-days' additional incubation (six days for the striate body), the cells were fixed, stained, and the number of surviving cells in each well was counted. Compounds (2) through (14) were tested analogously to Example 1 using hippocampus cells prepared in a manner similar to Example 1. As structural comparative compounds, the following compounds were used: 4H-pyran-4-one (hereinafter referred as Compound (15) and 3-methoxy-6 -hydroxymethyl-4H-pyran-4-one (hereinafter referred to as Compound (16)).

The subject of a further data set is septum neurons. As to the kind of experiment: inhibition of reduction in survival rate of neurons, septum (number of surviving cells). The settings on record: Rattus norvegicus, Neuron, 72 h, 3 days, control 100%. It counts as cell-based. The procedure:
as §1, with “counted.” for “counted. Compounds (2) through (14) were tested analogously to Example 1 using hippocampus cells prepared in a manner similar to Example 1. As structural comparative compounds, the following compounds were used: 4H-pyran-4-one (hereinafter referred as Compound (15) and 3-methoxy-6 -hydroxymethyl-4H-pyran-4-one (hereinafter referred to as Compound (16)).”

Another data set relates to cerebral cortex neurons. Briefly: inhibition of reduction in survival rate of neurons, cerebral cortex (number of surviving cells). In kind it is cell-based. The settings on record: Rattus norvegicus, Cerebral cortex neuron, 72 h, 3 days, control 100%. The procedure:
as §1, with “counted.” for “counted. Compounds (2) through (14) were tested analogously to Example 1 using hippocampus cells prepared in a manner similar to Example 1. As structural comparative compounds, the following compounds were used: 4H-pyran-4-one (hereinafter referred as Compound (15) and 3-methoxy-6 -hydroxymethyl-4H-pyran-4-one (hereinafter referred to as Compound (16)).”

The next data set has as its system striate body neurons. Briefly: inhibition of reduction in survival rate of neurons, striate body (number of surviving cells). It counts as cell-based. The settings on record: Rattus norvegicus, Neuron, 144 h, 6 days, control 100%. The procedure: as §1, with “counted.” for “counted. Compounds (2) through (14) were tested analogously to Example 1 using hippocampus cells prepared in a manner similar to Example 1. As structural comparative compounds, the following compounds were used: 4H-pyran-4-one (hereinafter referred as Compound (15) and 3-methoxy-6 -hydroxymethyl-4H-pyran-4-one (hereinafter referred to as Compound (16)).”

Another data set concerns cerebellum neurons. As to the kind of experiment: inhibition of reduction in survival rate of neurons, cerebellum (number of surviving cells). It counts as cell-based. The settings on record: Rattus norvegicus, Neuron, 72 h, 3 days, control 100%. As to the method:
as §1, with “counted.” for “counted. Compounds (2) through (14) were tested analogously to Example 1 using hippocampus cells prepared in a manner similar to Example 1. As structural comparative compounds, the following compounds were used: 4H-pyran-4-one (hereinafter referred as Compound (15) and 3-methoxy-6 -hydroxymethyl-4H-pyran-4-one (hereinafter referred to as Compound (16)).”

A further data set has as its system brain neurons. Briefly: inhibition of reduction of brain neurons (overall statement). In kind it is cell-based, rat. The settings on record: concentration-dependent; activity of control: 100%. The procedure: as §1, with “counted.” for “counted. Compounds (2) through (14) were tested analogously to Example 1 using hippocampus cells prepared in a manner similar to Example 1. As structural comparative compounds, the following compounds were used: 4H-pyran-4-one (hereinafter referred as Compound (15) and 3-methoxy-6 -hydroxymethyl-4H-pyran-4-one (hereinafter referred to as Compound (16)).”

The subject of data set [1] is hippocampus cells (neurites). As to the kind of experiment: branching promotion effect on neurites. In kind it is cell-based, rat. The settings on record: one and two days after addition of the drug. The procedure: The hippocampus cells obtained in a manner similar to that in Example 1 were incubated for 24 hours in a medium containing fetal calf serum, then for a further 24 hours in a serum-free medium. Subsequently, the drug was added. When one day and two days elapsed after addition of the drug, photographs were taken of the same cells. The number of branches from the longest neurite was counted.

A short description of data set [2]: oral toxicity (LD50), rats. The conditions noted are these: rat, in vivo, read-out: 50% lethal death (LD50).
Data set [3] is described as follows: oral toxicity (LD50), mice. The settings on record: mouse, in vivo, read-out: 50% lethal death (LD50).

Each structure is given as a SMILES string.

The term LD50 denotes the dose at which mortality reaches 50%. On to `CCCCCc1oc(C)c(OC)c(=O)c1O` [Compound (1), 3-Hydroxy-6-methyl-5-methoxy-2-pentyl-4H-pyran-4-one], for which the viability at 1 µg/mL stood at 57.8% with hippocampus neurons (10^-6 g/ml); 71.6% in the data set with septum neurons (10^-6 g/ml); 90.2% with cerebral cortex neurons (10^-6 g/ml); 83.8% in the data set with striate body neurons (10^-6 g/ml); 65.3% with cerebellum neurons (10^-6 g/ml). Besides, the viability at 0.1 µg/mL with hippocampus neurons (10^-7 g/ml) was 146%; in the data set with septum neurons (10^-7 g/ml), 157%; in the data set with cerebral cortex neurons (10^-7 g/ml) it was 125%; in the data set with striate body neurons (10^-7 g/ml) it was 160%; in the data set with cerebellum neurons (10^-7 g/ml), 147%. Besides, the viability at 0.01 µg/mL in the data set on hippocampus neurons (10^-8 g/ml) was 134%; in the data set with septum neurons (10^-8 g/ml), 150%; with cerebral cortex neurons (10^-8 g/ml), 107%; with striate body neurons (10^-8 g/ml), 139%; in the data set with cerebellum neurons (10^-8 g/ml), 136%. Further, the viability at 0.001 µg/mL in the data set on hippocampus neurons (10^-9 g/ml) stood at 109%; in the data set on septum neurons (10^-9 g/ml), 128%; in the data set with cerebral cortex neurons (10^-9 g/ml), 104%; with striate body neurons (10^-9 g/ml), 126%; in the data set on cerebellum neurons (10^-9 g/ml) it was 137%. Moreover, the “concentration range of effect of inhibiting reduction of neurons” value with brain neurons fell in the range of 1 to 100 ng/mL. In data set [1], the “branching promotion effect on neurites (in words)” value is “confirmed to have a branching promotion effect on neurites”. Moreover, the LD50 in data set [2] and in data set [3] was at least 1000 mg/kg each time.
